# Experimental data: US20220411414A1, “INHIBITORS FOR THE B-CATENIN/B-CELL LYMPHOMA 9 (BCL9) PROTEIN-PROTEIN INTERACTION” (H. LEE MOFFITT CANCER CENTER AND RESEARCH INSTITUTE, INC., priority 2018, published 2022)
# What was measured:
# HCT116 = assay: MTs growth inhibition assay, HCT116; format: cell-based; conditions: Homo sapiens, HCT-116; Wnt/β-catenin-hyperactive, 72 h; read-out: MTs IC50 ± SD HCT116
# Method: MTs cancer cell growth inhibition assays were conducted for 4 and 5. Three cancer cell lines with hyperactive Wnt/β-catenin signaling, SW480, HCT116, and MDA-MB-231. MTs cell viability assay. Colorectal cancer cell lines, SW480 and HCT116, and triple-negative breast cancer cell line MDA-MB-231 were seeded in 96-well plates at 4×10^3 cells/well, maintained overnight at 37° C., and incubated in the presence of 4 and 5 at various concentrations. Cell viability was monitored after 72 h using a freshly prepared mixture of 1 part phenazine methosulfate (PMS, Sigma) solution (0.92 mg/mL) and 19 parts 3-(4,5-dimethylthiazol-2-yl)-5-(3-carboxymethoxyphenyl)-2-(4-sulfophenyl)-2H-tetrazolium (MTs, Promega) solution (2 mg/mL). Cells were incubated in 10 μL of this solution at 37° C. for 3 h, and A490 was measured. The effect of each compound is expressed as the concentration required to reduce A490 by 50% (IC50) relative to vehicle-treated cells. Experiments were performed in triplicate.
# [1] = tested on: TOPFlash (three wild-type Tcf binding sites) luciferase reporter; assay: Wnt-responsive TOPFlash luciferase reporter assay, SW480; format: cell-based; conditions: Homo sapiens, 24 h treatment, read-out: TOPFlash IC50 ± SD SW480
# Method: The TOPFlash luciferase reporter assay (in which the luciferase reporter has three wild-type Tcf4 binding sites) was performed with 4 and 5. Cell transfection and luciferase assay. FuGENE6 (E269A, Promega) 96 well plate format was used for the transfection of HEK293 and SW480 cells according to the manufacturer's instruction. HEK293 cells were co-transfected with 45 ng of TOPFlash or FOPFlash reporter gene, 135 ng pcDNA3.1-β-catenin, and 20 ng of pCMV-RL normalization reporter gene. SW480 cells were co-transfected with 60 ng of the TOPFlash or FOPFlash reporter gene and 40 ng of pCMV-RL normalization reporter. Cells were cultured in DMEM and 10% FBS at 37° C. for 24 h, and different concentrations of inhibitors or DMSO was added. After 24 h, the luciferase reporter activity was measured using the Dual-Glo system (E2940, Promega). Normalized luciferase activity in response to the treatment with 4 and 5 was compared with that obtained from the cells treated with DMSO. Experiments were performed in triplicate.
# β-catenin/E-cadherin = target: T1, β-catenin/E-cadherin (Homo sapiens, UniProt P35222); assay: AlphaScreen selectivity assay, β-catenin/E-cadherin PPI; format: binding; conditions: Table 2, read-out: Ki ± SD β-catenin/E-cadherin
# T1 construct: Full-length β-catenin and (residues 1-781) were cloned into a pET-28b vector carrying a C-terminal 6× histidine; made in house; host or cells: E. coli BL21 DE3
# T1 sequence (P35222 1-781): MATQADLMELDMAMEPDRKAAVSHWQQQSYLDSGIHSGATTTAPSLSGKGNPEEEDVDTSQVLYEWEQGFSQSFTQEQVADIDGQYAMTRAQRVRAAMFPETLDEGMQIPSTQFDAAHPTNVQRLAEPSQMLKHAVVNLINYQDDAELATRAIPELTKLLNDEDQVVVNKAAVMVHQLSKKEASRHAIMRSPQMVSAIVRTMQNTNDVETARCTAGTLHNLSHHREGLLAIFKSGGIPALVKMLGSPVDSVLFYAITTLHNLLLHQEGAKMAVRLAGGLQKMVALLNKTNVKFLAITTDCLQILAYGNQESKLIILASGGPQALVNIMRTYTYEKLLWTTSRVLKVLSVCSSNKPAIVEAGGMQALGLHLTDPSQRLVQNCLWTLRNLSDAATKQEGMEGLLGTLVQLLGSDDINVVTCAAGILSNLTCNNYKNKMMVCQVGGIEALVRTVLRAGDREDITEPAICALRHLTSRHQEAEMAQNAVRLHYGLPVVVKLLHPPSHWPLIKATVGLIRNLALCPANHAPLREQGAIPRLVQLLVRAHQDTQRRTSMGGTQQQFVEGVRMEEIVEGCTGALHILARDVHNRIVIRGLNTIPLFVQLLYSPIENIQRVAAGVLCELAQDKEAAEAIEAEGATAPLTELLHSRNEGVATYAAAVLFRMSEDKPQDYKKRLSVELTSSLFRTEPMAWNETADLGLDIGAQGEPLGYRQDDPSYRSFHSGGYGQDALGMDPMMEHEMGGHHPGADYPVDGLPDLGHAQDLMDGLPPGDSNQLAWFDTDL
# Description: Compounds 4 and 5 were further evaluated with their selectivities for the disruption of β-catenin/BCL9 over β-catenin/E-cadherin interactions using the AlphaScreen selectivity assay (Zhang, M.; Wisniewski, J. A.; Ji, H AlphaScreen selectivity assay for, β-catenin/B-cell lymphoma 9 inhibitors. Anal. Biochen. 2015, 469, 43-53.).
# BCL9 peptide synthesis and purification. Human BCL9 (residues 350-375), N-terminally biotinylated human BCL9 (residues 350-375), human E-cadherin (residues 824-877), and N-terminally biotinylated human E-cadherin (residues 824-877) were synthesized by InnoPep Inc. (San Diego, Calif., www.innopep.com). All synthesized peptides were purified by HPLC with purity >95%. […]
# For the β-catenin/BCL9 assay, 5 nM of biotinylated BCL9 and 40 nM of His6-tagged β-catenin were incubated in assay buffer at 4° C. for 30 min. […] The IC50 value was determined by nonlinear least-square analysis of GraphPad Prism 5.0. The inhibition constant (Ki) values were derived from the IC50 values using a method reported by Nikolovska-Coleska et al (Nikolovska-Coleska, Z.; Wang, R.; Fang, X.; Pan, H.; Tomita, Y.; Li, P.; Roller, P. P.; Krajewski, K.; Saito, N. G.; Stuckey, J. A.; Wang, S. Development and optimization of a binding assay for the XIAP BIR3 domain using fluorescence polarization, Anal. Biochem. 2004, 332, 261-273.). […] The results were expressed as mean±standard deviation. […]
compound,measurement,setting,value
"Cl.Cl.O=C(Nc1ccc(O[C@@H]2CCNC2)c(-c2cccc(-c3nn[nH]n3)c2)c1)c1ccc(O[C@H]2CCNC2)c(-c2ccc(F)c(F)c2)c1 [Compound 4, 3′,4′-difluoro-6-(((S)-pyrrolidin-3-yl)oxy)-N-(6-(((R)-pyrrolidin-3-yl)oxy)-3′-(2H-tetrazol-5-yl)-[1,1′-biphenyl]-3-yl)-[1,1′-biphenyl]-3-carboxamide dihydrochloride]",IC50,HCT116,55 ± 7.4 µM
same,IC50,[1],25 ± 2.7 µM
same,Ki,β-catenin/E-cadherin,> 915 µM
